Among the data in US20060135393A1, “Mild cleansing composition” (KPSS-Kao Professional Salon Services GmbH, priority 2004, published 2006) are Irritation score values, retold here.

The test system of this data set is male and female volunteers backs. The experiment in a line: Occlusive multiple patch test for skin irritation potential (Hayes Chamber). The class given is in vivo, human. Conditions: shampoos diluted to 10% by weight in tap water; 25 μl per chamber; 3 applications, 72 hours total skin contact; visual scoring by dermatologist, 0 (no apparent cutaneous involvement) to 4 (severe erythema with edema). The method, then: The above composition and the comparative compositions (see below) were tested for their skin irritation potential in an occlusive patch test using male and female volunteers backs aging 45+−14 years using Hayes Chamber with 25 μl volume. In detail, the shampoo compositions to be tested were diluted to a shampoo concentration of 10% by weight in tap water and homogeneously mixed. Using a laboratory calibrated pipette 25 μl of the solutions were filled into the chambers and the samples were patched onto the backs of the volunteers. The application was repeated 3 times (the duration of skin contact in total is 72 hours). After removal of the last patch (after 72 hrs), the application areas were evaluated visually by a dermatologist. The evaluation scores were as follows: [table] Such kind of tests are offered by several dermatological institutes or dermatologists having private clinics and the tests of the present invention were as well carried out in a dermatological institutes in Germany.

On to `CCCCCCCCCCCCOS(=O)(=O)[O-].[Na+]` [1% SDS* solution, sodium dodecyl sulfate], for which the Irritation score stood at 1.99.
